The structures appear in SMILES notation. Counter-ions that a name gives are not always drawn.

For one assay, the target named is T1, human factor XIa (Homo sapiens, UniProt P03951).
T1 construct: purchased Kordia
Nature of the assay: Measurement of FXIa inhibition (fluorogenic peptide substrate Boc-Glu(OBzl)-Ala-Arg-AMC). The format is biochemical. Particulars: factor XIa from Kordia 0.45 nM; 15 min preincubation; 30 min at 22° C. On the procedure: The factor XIa inhibition of the substances according to the invention is determined using a biochemical test system which utilizes the reaction of a peptidic factor XIa substrate to determine the enzymatic activity of human factor XIa. Here, factor XIa cleaves from the peptic factor XIa substrate the C-terminal aminomethylcoumarin (AMC), the fluorescence of which is measured. The determinations are carried out in microtitre plates.
Test substances are dissolved in dimethyl sulphoxide and serially diluted in dimethyl sulphoxide (3000 μM to 0.0078 μM; resulting final concentrations in the test: 50 μM to 0.00013 μM). In each case 1 μl of the diluted substance solutions is placed into the wells of white microtitre plates from Greiner (384 wells). Subsequently, the following are added successively: 20 μl of assay buffer (50 mmol/l Tris buffer pH 7.4; 100 mmol/l sodium chloride; 5 mmol/l calcium chloride; 0.1% bovine serum albumin) and 20 μl of factor XIa from Kordia (0.45 nM in assay buffer). After 15 min of incubation, the enzyme reaction is started by addition of 20 μl of the factor XIa substrate Boc-Glu(OBzl)-Ala-Arg-AMC dissolved in assay buffer (10 μM in assay buffer) from Bachem, the mixture is incubated at room temperature (22° C.) for 30 min and fluorescence is then measured (excitation: 360 nm, emission: 460 nm). The measured emissions of the test batches with test substance are compared to those of control batches without test substance (only dimethyl sulphoxide instead of test substance in dimethyl sulphoxide), and IC50 values are calculated from the concentration/activity relationships.

For a further assay, the system named is human and animal plasma. Briefly: Determination of anticoagulatory activity: activated partial thromboplastin time (aPTT) in plasma. Particulars: C.K. Prest kit, 37° C., 3 minutes incubation, plasma species of Table B not stated. Format: biochemical. The protocol: The anticoagulatory activity of the test substances is determined in vitro in human and animal plasma (for example mouse, rat, rabbit, pig and dog plasma). To this end, blood is drawn off in a mixing ratio of sodium citrate/blood of 1:9 using a 0.11 molar sodium citrate solution as receiver. Immediately after the blood has been drawn off, it is mixed thoroughly and centrifuged at about 4000 g for 15 minutes. The supernatant is pipetted off.
The activated partial thromboplastin time (aPTT) is determined in the presence of varying concentrations of test substance or the corresponding solvent using a commercial test kit (C.K. Prest from Diagnostica Stago). The test compounds are incubated with the plasma and the PTT reagent (cephalin, kaolin) at 37° C. for 3 minutes. Coagulation is then started by addition of a 25 mM aqueous calcium chloride solution, and the time when coagulation occurs is determined. The concentration of test substance which brings about a 1.5-fold extension of the aPTT is determined Activity data from this test are listed in Table B below: […]

T1 sequence (P03951 388-625 limits assumed): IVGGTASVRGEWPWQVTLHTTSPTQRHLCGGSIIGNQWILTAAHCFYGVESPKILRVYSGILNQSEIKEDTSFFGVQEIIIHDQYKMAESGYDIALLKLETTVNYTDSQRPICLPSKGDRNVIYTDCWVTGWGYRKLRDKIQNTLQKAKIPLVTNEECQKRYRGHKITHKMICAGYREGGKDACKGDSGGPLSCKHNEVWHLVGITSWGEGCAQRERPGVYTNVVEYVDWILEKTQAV
T1 sequence (P03951 19-387 partner limits assumed): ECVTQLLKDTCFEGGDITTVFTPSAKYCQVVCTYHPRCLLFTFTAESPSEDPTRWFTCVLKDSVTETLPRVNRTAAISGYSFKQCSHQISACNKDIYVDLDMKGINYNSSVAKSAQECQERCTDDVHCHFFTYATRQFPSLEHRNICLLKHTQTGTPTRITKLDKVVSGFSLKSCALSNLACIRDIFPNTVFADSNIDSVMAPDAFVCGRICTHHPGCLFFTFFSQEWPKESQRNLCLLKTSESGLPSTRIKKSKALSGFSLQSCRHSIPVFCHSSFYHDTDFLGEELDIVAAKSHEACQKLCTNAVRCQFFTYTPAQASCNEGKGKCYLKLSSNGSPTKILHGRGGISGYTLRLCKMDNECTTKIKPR

The IC50 is the midpoint of a concentration-inhibition curve. Higher therefore signals weaker potency in that assay. At human factor XIa, `NC[C@H]1CC[C@H](C(=O)N[C@@H](Cc2ccc(-c3cccc(C(=O)N4CCOCC4)c3)cc2)C(=O)Nc2ccc(-c3nn[nH]n3)cc2)CC1` [Example 20, trans-4-(Aminomethyl)-N-[(2S)-3-[3′-(morpholin-4-ylcarbonyl)biphenyl-4-yl]-1-oxo-1-{[4-(2H-tetrazol-5-yl)phenyl]amino}propan-2-yl]cyclohexanecarboxamide hydrochloride] showed an IC50 of 2.7 nM. The “aPTT (concentration of test substance which brings about a 1.5-fold extension of the aPTT)” value in the assay on human and animal plasma was determined as 0.39 µmol/L.

The compound `Cc1ccc(C#N)cc1-c1ccc(C[C@H](NC(=O)[C@H]2CC[C@H](CN)CC2)C(=O)Nc2ccc(-c3nn[nH]n3)cc2)cc1` [Example 21, trans-4-(Aminomethyl)-N-[(2S)-3-(5′-cyano-2′-methylbiphenyl-4-yl)-1-oxo-1-{[4-(2H-tetrazol-5-yl)phenyl]amino}propan-2-yl]cyclohexanecarboxamide hydrochloride] came in with an IC50 on human factor XIa of 8.3 nM. In the assay on human and animal plasma, the “aPTT (concentration of test substance which brings about a 1.5-fold extension of the aPTT)” value came to 0.22 µmol/L.

For `Cc1ccc(-c2ccc(C[C@H](NC(=O)[C@H]3CC[C@H](CN)CC3)C(=O)Nc3ccc(-c4nn[nH]n4)cc3)cc2)cc1NC(=O)C1CCNCC1` [Example 22, N-{4[(2S)-2-({[trans-4-(Aminomethyl)cyclohexyl]carbonyl}amino)-3-oxo-3-{[4-(2H-tetrazol-5-yl)phenyl]amino}propyl]-4-methylbiphenyl-3-yl}piperidine-4-carboxamide hydrochloride], on human factor XIa, the IC50 stood at 25 nM. The “aPTT (concentration of test substance which brings about a 1.5-fold extension of the aPTT)” value in the assay on human and animal plasma is 0.34 µmol/L.

For the compound `CCc1ccc(C(=O)NCCN(CC)CC)cc1-c1ccc(C[C@H](NC(=O)[C@H]2CC[C@H](CN)CC2)C(=O)Nc2ccc(-c3nn[nH]n3)cc2)cc1` [Example 23, 4′-[(2S)-2-({[trans-4-(Aminomethyl)cyclohexyl]carbonyl}amino)-3-oxo-3-{[4-(2H-tetrazol-5-yl)phenyl]amino}propyl]-N-[2-(diethylamino)ethyl]-6-ethylbiphenyl-3-carboxamide hydrochloride], on human factor XIa, the IC50 was 13 nM. Moreover, in the assay on human and animal plasma, the “aPTT (concentration of test substance which brings about a 1.5-fold extension of the aPTT)” value is 0.36 µmol/L.

`COc1ccc(-c2ccc(C[C@H](NC(=O)[C@H]3CC[C@H](CN)CC3)C(=O)Nc3ccc(-c4nnn[nH]4)cc3)cc2)cc1S(=O)(=O)N1CCOCC1` [Example 24, trans-4-(Aminomethyl)-N-[(2S)-3-[4′-methoxy-3′-(morpholin-4-ylsulphonyl)biphenyl-4-yl]-1-oxo-1-{[4-(1H-tetrazol-5-yl)phenyl]amino}propan-2-yl]cyclohexanecarboxamide hydrochloride]: the IC50 against human factor XIa turned out to be 2 nM. Further, the “aPTT (concentration of test substance which brings about a 1.5-fold extension of the aPTT)” value in the assay on human and animal plasma worked out at 0.09 µmol/L.

Consider `Cc1ccc(S(=O)(=O)N(C)C)cc1-c1ccc(C[C@H](NC(=O)[C@H]2CC[C@H](CN)CC2)C(=O)Nc2ccc3[nH]c(=O)[nH]c3c2)cc1` [Example 25, trans-4-(Aminomethyl)-N-{(2S)-3-[5′-(dimethylsulphamoyl)-2′-methylbiphenyl-4-yl]-1-oxo-1-[(2-oxo-2,3-dihydro-1H-benzimidazol-5-yl)amino]propan-2-yl}cyclohexanecarboxamide hydrochloride], for which half-maximal inhibition against human factor XIa (IC50) required 6.1 nM. For the same compound, in the assay on human and animal plasma, the “aPTT (concentration of test substance which brings about a 1.5-fold extension of the aPTT)” value was found to be 0.15 µmol/L.

`Cc1ccc(S(=O)(=O)N2CCOCC2)cc1-c1ccc(C[C@H](NC(=O)[C@H]2CC[C@H](CN)CC2)C(=O)Nc2ccc3[nH]c(=O)[nH]c3c2)cc1` [Example 26, trans-4-(Aminomethyl)-N-{(2S)-3-[2′-methyl-5′-(morpholin-4-ylsulphonyl)biphenyl-4-yl]-1-oxo-1-[(2-oxo-2,3-dihydro-1H-benzimidazol-5-yl)amino]propan-2-yl}cyclohexanecarboxamide hydrochloride] returned an IC50 on human factor XIa of 6.1 nM. Also, the “aPTT (concentration of test substance which brings about a 1.5-fold extension of the aPTT)” value with human and animal plasma stood at 0.18 µmol/L.

`NC[C@H]1CC[C@H](C(=O)N[C@@H](Cc2ccc(-c3cccc(C(=O)NCCN4CCOCC4)c3)cc2)C(=O)Nc2ccc(-c3nnn[nH]3)cc2)CC1` [Example 27, 4′-[(2S)-2-({[trans-4-(Aminomethyl)cyclohexyl]carbonyl}amino)-3-oxo-3-{[4-(1H-tetrazol-5-yl)phenyl]amino}propyl]-N-[2-(morpholin-4-yl)ethyl]biphenyl-3-carboxamide hydrochloride] showed an IC50 at human factor XIa of 6 nM. Further, in the assay on human and animal plasma, the “aPTT (concentration of test substance which brings about a 1.5-fold extension of the aPTT)” value worked out at 0.19 µmol/L.

`Cc1ccc(N(C)C)cc1-c1ccc(C[C@H](NC(=O)[C@H]2CC[C@H](CN)CC2)C(=O)Nc2ccc(-c3nnn[nH]3)cc2)cc1` [Example 28, trans-4-(Aminomethyl)-N-[(2S)-3-[5′-(dimethylamino)-2′-methylbiphenyl-4-yl]-1-oxo-1-{[4-(1H-tetrazol-5-yl)phenyl]amino}propan-2-yl]cyclohexanecarboxamide hydrochloride] had an IC50 on human factor XIa of 1.5 nM. Also, the “aPTT (concentration of test substance which brings about a 1.5-fold extension of the aPTT)” value with human and animal plasma was 0.26 µmol/L.

Take `Cc1ccc(-c2ccc(C[C@H](NC(=O)[C@H]3CC[C@H](CN)CC3)C(=O)Nc3ccc(-c4nn[nH]n4)cc3)cc2)cc1NC(=O)C1CCOCC1` [Example 29, N-{4′-[(2S)-2-({[trans-4-(Aminomethyl)cyclohexyl]carbonyl}amino)-3-oxo-3-{[4-(2H-tetrazol-5-yl)phenyl]amino}propyl]-4-methylbiphenyl-3-yl}tetrahydro-2H-pyran-4-carboxamide hydrochloride]: the IC50 at human factor XIa came to 11 nM. Also, in the assay on human and animal plasma, the “aPTT (concentration of test substance which brings about a 1.5-fold extension of the aPTT)” value is 0.3 µmol/L.

Turning to `Cc1c(F)cc(C(=O)NC(C)C)cc1-c1ccc(C[C@H](NC(=O)[C@H]2CC[C@H](CN)CC2)C(=O)Nc2ccc(-c3nn[nH]n3)cc2)cc1` [Example 30, 4′-[(2S)-2-({[trans-4-(Aminomethyl)cyclohexyl]carbonyl}amino)-3-oxo-3-{[4-(2H-tetrazol-5-yl)phenyl]amino}propyl]-5-fluoro-N-isopropyl-6-methylbiphenyl-3-carboxamide hydrochloride], the IC50 at human factor XIa amounted to 2.7 nM. Also, the “aPTT (concentration of test substance which brings about a 1.5-fold extension of the aPTT)” value in the assay with human and animal plasma turned out to be 0.2 µmol/L.

`Cc1c(F)cc(C(=O)NC2CCNCC2)cc1-c1ccc(C[C@H](NC(=O)[C@H]2CC[C@H](CN)CC2)C(=O)Nc2ccc(-c3nn[nH]n3)cc2)cc1` [Example 31, 4′-[(2S)-2-({[trans-4-(Aminomethyl)cyclohexyl]carbonyl}amino)-3-oxo-3-{[4-(2H-tetrazol-5-yl)phenyl]amino}propyl]-5-fluoro-6-methyl-N-(piperidin-4-yl)biphenyl-3-carboxamide hydrochloride] yielded an IC50 on human factor XIa of 4.5 nM. The “aPTT (concentration of test substance which brings about a 1.5-fold extension of the aPTT)” value in the assay on human and animal plasma is 0.16 µmol/L.

`Cc1ccc(C(=O)N[C@H]2CC[C@H](O)CC2)cc1-c1ccc(C[C@H](NC(=O)[C@H]2CC[C@H](CN)CC2)C(=O)Nc2ccc(-c3nn[nH]n3)cc2)cc1` [Example 32, 4′-[(2S)-2-({[trans-4-(Aminomethyl)cyclohexyl]carbonyl}amino)-3-oxo-3-{[4-(2H-tetrazol-5-yl)phenyl]amino}propyl]-N-(trans-4-hydroxycyclohexyl)-6-methylbiphenyl-3-carboxamide hydrochloride] yielded an IC50 against human factor XIa of 4.7 nM. In addition, the “aPTT (concentration of test substance which brings about a 1.5-fold extension of the aPTT)” value in the assay on human and animal plasma worked out at 0.15 µmol/L.

With `Cc1ccc(C(=O)N2CCOCC2)cc1-c1ccc(C[C@H](NC(=O)[C@H]2CC[C@H](CN)CC2)C(=O)Nc2ccc(-c3nn[nH]n3)cc2)cc1` [Example 33, trans-4-(Aminomethyl)-N-[(2S)-3-[2′-methyl-5′-(morpholin-4-ylcarbonyl)biphenyl-4-yl]-1-oxo-1-{[4-(2H-tetrazol-5-yl)phenyl]amino}propan-2-yl]cyclohexanecarboxamide hydrochloride], 5.4 nM corresponded to half-maximal inhibition at human factor XIa (IC50). Further, the “aPTT (concentration of test substance which brings about a 1.5-fold extension of the aPTT)” value with human and animal plasma was 0.18 µmol/L.

For `Cc1cc(C(=O)NC2CCN(C)CC2)cc(-c2ccc(C[C@H](NC(=O)[C@H]3CC[C@H](CN)CC3)C(=O)Nc3ccc(-c4nn[nH]n4)cc3)cc2)c1C` [Example 34, 4′-[(2S)-2-({[trans-4-(Aminomethyl)cyclohexyl]carbonyl}amino)-3-oxo-3-{[4-(2H-tetrazol-5-yl)phenyl]amino}propyl]-5,6-dimethyl-N-(1-methylpiperidin-4-yl)biphenyl-3-carboxamide hydrochloride], the IC50 against human factor XIa worked out at 4.1 nM. Moreover, in the assay on human and animal plasma, the “aPTT (concentration of test substance which brings about a 1.5-fold extension of the aPTT)” value was 0.06 µmol/L.

Source of the values: patent US20160237067A1, “SUBSTITUTED PHENYLALANINE DERIVATIVES” (BAYER PHARMA AKTIENGESELLSCHAFT, priority 2013, published 2016).
